Results published in PubChem BioAssay (NCI).
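Test compounds were applied to cells in 96-well plates for 48 hours at 5 doses. The concentration for full growth arrest is given as TGI.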

Key:
Assay in all cases: inhibition of tumour cell growth, NCI panel, 48 h
[1] = system: 786-0 renal
[2] = system: A498 renal
[3] = system: A549 NSCLC
[4] = system: ACHN renal
[5] = system: CAKI-1 renal
[6] = system: CCRF-CEM leukemia
[7] = system: COLO 205 colon
[8] = system: DLD-1 colon
[9] = system: DMS 114 small cell lung
[10] = system: DMS 273 small cell lung
[11] = system: EKVX NSCLC
[12] = system: HCC-2998 colon
[13] = system: HCT-116 colon
[14] = system: HCT-15 colon
[15] = system: HOP-18 NSCLC
[16] = system: HOP-62 NSCLC
[17] = system: HOP-92 NSCLC
[18] = system: HT29 colon
[19] = system: IGROV1 ovarian
[20] = system: K-562 leukemia
[21] = system: KM20L2 colon
[22] = system: LOX IMVI melanoma
[23] = system: LXFL 529 NSCLC
[24] = system: M14 melanoma
[25] = system: M19-MEL melanoma
[26] = system: MALME-3M melanoma
[27] = system: MOLT-4 leukemia
[28] = system: NCI-H23 lung
[29] = system: NCI-H460 lung
[30] = system: NCI-H522 lung
[31] = system: OVCAR-3 ovarian
[32] = system: OVCAR-4 ovarian
[33] = system: OVCAR-5 ovarian
[34] = system: OVCAR-8 ovarian
[35] = system: RPMI-8226 leukemia
[36] = system: RXF 393 renal
[37] = system: SF-268 CNS
[38] = system: SF-295 CNS
[39] = system: SF-539 CNS
[40] = system: SK-MEL-2 melanoma
[41] = system: SK-MEL-28 melanoma
[42] = system: SK-MEL-5 melanoma
[43] = system: SK-OV-3 ovarian
[44] = system: SN12C renal
[45] = system: SNB-19 CNS
[46] = system: SNB-75 CNS
[47] = system: SNB-78 CNS
[48] = system: SW-620 colon
[49] = system: TK-10 renal
[50] = system: U251 CNS
[51] = system: UACC-257 melanoma
[52] = system: UACC-62 melanoma
[53] = system: UO-31 renal
[54] = system: XF 498 CNS
[55] = system: KM12 colon
[56] = system: NCI-H226 lung

`O=C(N/C(=C\c1ccc(/C=C(\NC(=O)c2ccccc2)c2nc3ccccc3[nH]2)cc1)c1nc2ccccc2[nH]1)c1ccccc1` was tested, and the TGI [1] was > 100 µM, the TGI [2] was > 100 µM and the TGI [3] was > 100 µM. For the same compound, the TGI [4] was > 100 µM, the TGI [5] was > 100 µM and the TGI [6] was > 100 µM. The TGI [7] was > 100 µM, the TGI [8] was > 100 µM and the TGI [9] was > 100 µM. For the same compound, the TGI [10] was > 100 µM, the TGI [11] was > 100 µM and the TGI [12] was > 100 µM. The TGI [13] was > 100 µM, the TGI [14] was > 100 µM and the TGI [15] was > 100 µM. For the same compound, the TGI [16] was > 100 µM, the TGI [17] was > 100 µM and the TGI [18] was > 100 µM. The TGI [19] was > 100 µM, the TGI [20] was > 100 µM and the TGI [21] was > 100 µM. The TGI [22] was > 100 µM, the TGI [23] was > 100 µM and the TGI [24] was > 100 µM. For the same compound, the TGI [25] was > 100 µM, the TGI [26] was > 100 µM and the TGI [27] was > 100 µM. The TGI [28] was > 100 µM, the TGI [29] was > 100 µM and the TGI [30] was > 100 µM. The TGI [31] was > 100 µM, the TGI [32] was > 100 µM and the TGI [33] was > 100 µM. The TGI [34] was > 100 µM, the TGI [35] was > 100 µM and the TGI [36] was > 100 µM. The TGI [37] was > 100 µM, the TGI [38] was > 100 µM and the TGI [39] was > 100 µM. For the same compound, the TGI [40] was > 100 µM, the TGI [41] was > 100 µM and the TGI [42] was > 100 µM. For the same compound, the TGI [43] was > 100 µM, the TGI [44] was > 100 µM and the TGI [45] was > 100 µM. The TGI [46] was > 100 µM, the TGI [47] was > 100 µM and the TGI [48] was > 100 µM. The TGI [49] was > 100 µM, the TGI [50] was > 100 µM and the TGI [51] was > 100 µM. For the same compound, the TGI [52] was > 100 µM, the TGI [53] was > 100 µM and the TGI [54] was > 100 µM.

For `CCOc1ccc(NC(=O)C(=O)C(C(=O)c2ccc3ccccc3c2)C2OC(=O)c3ccccc32)cc1` (stereo not drawn), the TGI [1] was 40.5 µM, the TGI [2] was 45.8 µM and the TGI [3] was > 100 µM. The TGI [4] was > 100 µM, the TGI [5] was > 100 µM and the TGI [6] was 57.7 µM. For the same compound, the TGI [7] was 41.7 µM, the TGI [8] was 30.1 µM and the TGI [9] was 89.7 µM. For the same compound, the TGI [10] was 47 µM, the TGI [11] was > 100 µM and the TGI [12] was 23.2 µM. The TGI [13] was 35.1 µM, the TGI [14] was 43.4 µM and the TGI [15] was 78.1 µM. The TGI [16] was 39.4 µM, the TGI [17] was 68.3 µM and the TGI [18] was > 100 µM. For the same compound, the TGI [19] was 52.5 µM, the TGI [20] was > 100 µM and the TGI [55] was > 100 µM. The TGI [21] was > 100 µM, the TGI [22] was 33.2 µM and the TGI [23] was 37.4 µM. It also gave a TGI [24] of 42.2 µM, a TGI [25] of 34.6 µM and a TGI [26] of 77.4 µM. It also gave a TGI [27] of 43.7 µM, a TGI [56] of 13.5 µM and a TGI [28] of 33 µM. For the same compound, the TGI [29] was > 100 µM, the TGI [30] was 31.6 µM and the TGI [31] was 86.8 µM. The TGI [32] was 44.5 µM, the TGI [33] was 84.9 µM and the TGI [34] was > 100 µM. It also gave a TGI [35] of 38.4 µM, a TGI [37] of 62.4 µM and a TGI [39] of 39 µM. The TGI [40] was 37.2 µM, the TGI [41] was 37.5 µM and the TGI [42] was 31.9 µM. The TGI [43] was > 100 µM, the TGI [44] was 44 µM and the TGI [45] was > 100 µM. The TGI [46] was 64.9 µM, the TGI [47] was 64.9 µM and the TGI [48] was 92.6 µM. For the same compound, the TGI [49] was > 100 µM, the TGI [50] was 24.4 µM and the TGI [51] was 81.9 µM. It also gave a TGI [52] of 27.2 µM, a TGI [53] of 34 µM and a TGI [54] of 60.6 µM.
